From ChEMBL document CHEMBL1649229, “Efficacy of high doses of daptomycin versus alternative therapies against experimental foreign-body infection by methicillin-resistant Staphylococcus aureus” (Antimicrob Agents Chemother, 2009)
Values after ≈ are worked out from the molar mass of the structure shown. Active and inactive are the calls of the source. The calls are words filed in the database; no cut-off is given here.

Experiments:
Staphylococcus aureus [1] = experiment: Bactericidal activity against stationary-phase methicillin-resistant Staphylococcus aureus HUSA 304 after 24 hrs by time kill analysis; assay type: functional; details: HUSA 304, 24 h
Staphylococcus aureus [2] = experiment: Antimicrobial activity against log-phase methicillin-resistant Staphylococcus aureus HUSA 304 assessed as resistant bacteria in tissue cage fluid selected on 1 to 5 ug/ml of compound measured on day 8 post treatment in presence of 50 mg/L calcium ions; assay type: functional, organism-based
[3] = Cmax in serum of human infected with methicillin-resistant Staphylococcus aureus HUSA 304 at 10 mg/kg/day, […]; assay type: ADME, organism-based; parameters: dose 10 mg/kg/day, route intraperitoneal
[4] = Ratio of Cmax in tissue cage fluid of Wistar rat infected with methicillin-resistant Staphylococcus aureus HUSA 304 at 100 mg/kg/day, ip to MIC for methicillin-resistant Staphylococcus aureus HUSA 304; assay type: functional; details: route intraperitoneal
[5] = Cmax in tissue cage fluid of Wistar rat infected with methicillin-resistant Staphylococcus aureus HUSA 304 at 70 mg/kg/day, ip; assay type: ADME, organism-based, Interstitial fluid; parameters: dose 70 mg/kg/day, route intraperitoneal
[6] = Ratio of Cmax in tissue cage fluid of Wistar rat infected with methicillin-resistant Staphylococcus aureus HUSA 304 at 70 mg/kg/day, ip to MIC for methicillin-resistant Staphylococcus aureus HUSA 304; assay type: functional; details: route intraperitoneal
[7] = Ratio of Cmax in tissue cage fluid of Wistar rat infected with methicillin-resistant Staphylococcus aureus HUSA 304 at 45 mg/kg/day, ip to MIC for methicillin-resistant Staphylococcus aureus HUSA 304; assay type: functional; details: route intraperitoneal
Staphylococcus aureus [8] = experiment: Antimicrobial activity against methicillin-resistant Staphylococcus aureus HUSA 304 infected in Wistar rat assessed as decrease in bacterial load in tissue cage fluid at 100 mg/kg/day, ip administered for 7 days measured on day 11 post treatment in presence of 50 mg/L calcium ions; assay type: functional; details: route intraperitoneal
[9] = AUC (0 to infinity) in tissue cage fluid of Wistar rat infected with methicillin-resistant Staphylococcus aureus HUSA 304 at 45 mg/kg/day, ip; assay type: ADME, organism-based; parameters: dose 45 mg/kg/day, time infinity, route intraperitoneal
[10] = Cmax in serum of Wistar rat infected with methicillin-resistant Staphylococcus aureus HUSA 304 at 45 mg/kg/day, ip for 7 days; assay type: ADME, organism-based; parameters: dose 45 mg/kg/day, route intraperitoneal
Staphylococcus aureus [11] = experiment: Antimicrobial activity against methicillin-resistant Staphylococcus aureus HUSA 304 infected in Wistar rat assessed as decrease in bacterial load in tissue cage fluid at 100 mg/kg/day, ip administered for 7 days measured on day 8 post treatment in presence of 50 mg/L calcium ions; assay type: functional; details: route intraperitoneal
[12] = AUC (0 to infinity) in serum of Wistar rat infected with methicillin-resistant Staphylococcus aureus HUSA 304 at 100 mg/kg/day, ip for 7 days; assay type: ADME, organism-based; parameters: dose 100 mg/kg/day, time infinity, route intraperitoneal
[13] = Cmax in serum of Wistar rat infected with methicillin-resistant Staphylococcus aureus HUSA 304 at 100 mg/kg/day, ip for 7 days; assay type: ADME, organism-based; parameters: dose 100 mg/kg/day, route intraperitoneal
Staphylococcus aureus [14] = experiment: Antimicrobial activity against log-phase methicillin-resistant Staphylococcus aureus HUSA 304 assessed as resistant bacteria on coverslip selected on 1 to 5 ug/ml of compound measured on day 11 post treatment in presence of 50 mg/L calcium ions; assay type: functional, organism-based
[15] = fT>MIC in methicillin-resistant Staphylococcus aureus HU 304 infected in Wistar rat at 100 mg/kg/day, ip for 7 days; assay type: functional; details: route intraperitoneal
[16] = Cmax in serum of Wistar rat infected with methicillin-resistant Staphylococcus aureus HUSA 304 at 70 mg/kg/day, ip for 7 days; assay type: ADME, organism-based; parameters: dose 70 mg/kg/day, route intraperitoneal
Staphylococcus aureus [17] = experiment: Antimicrobial activity against log-phase methicillin-resistant Staphylococcus aureus HUSA 304 by M7-A6 method in presence of 50 mg/L calcium ions; assay type: functional
[18] = Ratio of AUC (0 to infinity) in tissue cage fluid of Wistar rat infected with methicillin-resistant Staphylococcus aureus HUSA 304 at 45 mg/kg/day, ip to MIC for methicillin-resistant Staphylococcus aureus HUSA 304; assay type: functional; details: route intraperitoneal
[19] = AUC (0 to 24 hrs) in serum of human infected with methicillin-resistant Staphylococcus aureus HUSA 304 at 10 mg/kg/day, […]; assay type: ADME, organism-based; parameters: dose 10 mg/kg/day, time < 24 hr
[20] = Cmax in serum of human infected with methicillin-resistant Staphylococcus aureus HUSA 304 at 8 mg/kg/day, […]; assay type: ADME, organism-based; parameters: dose 8 mg/kg/day, route intraperitoneal
[21] = Ratio of AUC (0 to infinity) in tissue cage fluid of Wistar rat infected with methicillin-resistant Staphylococcus aureus HUSA 304 at 100 mg/kg/day, ip to MIC for methicillin-resistant Staphylococcus aureus HUSA 304; assay type: functional; details: route intraperitoneal
[22] = Ratio of AUC (0 to infinity) in tissue cage fluid of Wistar rat infected with methicillin-resistant Staphylococcus aureus HUSA 304 at 70 mg/kg/day, ip to MIC for methicillin-resistant Staphylococcus aureus HUSA 304; assay type: functional; details: route intraperitoneal
[23] = AUC (0 to infinity) in serum of Wistar rat infected with methicillin-resistant Staphylococcus aureus HUSA 304 at 70 mg/kg/day, ip for 7 days; assay type: ADME, organism-based; parameters: dose 70 mg/kg/day, time infinity, route intraperitoneal
[24] = AUC (0 to 24 hrs) in serum of human infected with methicillin-resistant Staphylococcus aureus HUSA 304 at 6 mg/kg/day, […]; assay type: ADME, organism-based; parameters: time < 24 hr, dose 6 mg/kg/day
[25] = fT>MIC in methicillin-resistant Staphylococcus aureus HU 304 infected in Wistar rat at 45 mg/kg/day, ip for 7 days; assay type: functional; details: route intraperitoneal
[26] = AUC (0 to infinity) in tissue cage fluid of Wistar rat infected with methicillin-resistant Staphylococcus aureus HUSA 304 at 100 mg/kg/day, ip; assay type: ADME, organism-based; parameters: dose 100 mg/kg/day, time infinity, route intraperitoneal
[27] = AUC (0 to 24 hrs) in serum of human infected with methicillin-resistant Staphylococcus aureus HUSA 304 at 8 mg/kg/day, […]; assay type: ADME, organism-based; parameters: dose 8 mg/kg/day, time < 24 hr
[28] = AUC (0 to infinity) in tissue cage fluid of Wistar rat infected with methicillin-resistant Staphylococcus aureus HUSA 304 at 70 mg/kg/day, ip; assay type: ADME, organism-based; parameters: dose 70 mg/kg/day, time infinity, route intraperitoneal
Staphylococcus aureus [29] = experiment: Antimicrobial activity against log-phase methicillin-resistant Staphylococcus aureus HUSA 304 selected on 1 to 5 ug/ml of compound measured after 5 days by M7-A6 method in presence of 50 mg/L calcium ions; assay type: functional; details: HUSA 304, 120 h
[30] = AUC (0 to infinity) in serum of Wistar rat infected with methicillin-resistant Staphylococcus aureus HUSA 304 at 45 mg/kg/day, ip for 7 days; assay type: ADME, organism-based; parameters: dose 45 mg/kg/day, time infinity, route intraperitoneal
Staphylococcus aureus [31] = experiment: Bactericidal activity against log-phase methicillin-resistant Staphylococcus aureus HUSA 304 after 24 hrs by time kill analysis; assay type: functional; details: HUSA 304, 24 h
[32] = fT>MIC in methicillin-resistant Staphylococcus aureus HU 304 infected in Wistar rat at 70 mg/kg/day, ip for 7 days; assay type: functional; details: route intraperitoneal
[33] = Cmax in tissue cage fluid of Wistar rat infected with methicillin-resistant Staphylococcus aureus HUSA 304 at 45 mg/kg/day, ip; assay type: ADME, organism-based, Interstitial fluid; parameters: dose 45 mg/kg/day, route intraperitoneal
Staphylococcus aureus [34] = experiment: Antimicrobial activity against log-phase methicillin-resistant Staphylococcus aureus HUSA 304 assessed as resistant bacteria in tissue cage fluid selected on 1 to 5 ug/ml of compound measured on day 11 post treatment in presence of 50 mg/L calcium ions; assay type: functional, organism-based
[35] = Cmax in serum of human infected with methicillin-resistant Staphylococcus aureus HUSA 304 at 6 mg/kg/day, […]; assay type: ADME, organism-based; parameters: dose 6 mg/kg/day
[36] = Cmax in tissue cage fluid of Wistar rat infected with methicillin-resistant Staphylococcus aureus HUSA 304 at 100 mg/kg/day, ip; assay type: ADME, organism-based, Interstitial fluid; parameters: dose 100 mg/kg/day, route intraperitoneal
Staphylococcus aureus [37] = experiment: Antimicrobial activity against log-phase methicillin-resistant Staphylococcus aureus HUSA 304 assessed as resistant bacteria on coverslip selected on 4 ug/ml of compound measured on day 11 post treatment; assay type: functional, organism-based
Staphylococcus aureus [38] = experiment: Antimicrobial activity against log-phase methicillin-resistant Staphylococcus aureus HUSA 304 assessed as resistant bacteria in tissue cage fluid selected on 4 ug/ml of compound measured on day 11 post treatment; assay type: functional, organism-based
Staphylococcus aureus [39] = experiment: Bactericidal activity against stationary-phase methicillin-resistant Staphylococcus aureus HUSA 304 after 24 hrs by time kill analysis in presence of 50 mg/L calcium ions; assay type: functional; details: HUSA 304, 24 h
Staphylococcus aureus [40] = experiment: Antimicrobial activity against log-phase methicillin-resistant Staphylococcus aureus HUSA 304 assessed as resistant bacteria in tissue cage fluid selected on 4 ug/ml of compound measured on day 8 post treatment; assay type: functional, organism-based
Staphylococcus aureus [41] = experiment: Antimicrobial activity against methicillin-resistant Staphylococcus aureus HUSA 304 infected in Wistar rat assessed as decrease in bacterial load in tissue cage fluid at 50 mg/kg, ip administered every 12 hrs for 7 days measured on day 11 post treatment; assay type: functional; details: route intraperitoneal
Staphylococcus aureus [42] = experiment: Antimicrobial activity against methicillin-resistant Staphylococcus aureus HUSA 304 infected in Wistar rat assessed as decrease in bacterial load in tissue cage fluid at 50 mg/kg, ip administered every 12 hrs for 7 days measured on day 8 post treatment; assay type: functional; details: route intraperitoneal
Staphylococcus aureus [43] = experiment: Bactericidal activity against log-phase methicillin-resistant Staphylococcus aureus HUSA 304 after 24 hrs by time kill analysis in presence of 50 mg/L calcium ions; assay type: functional; details: HUSA 304, 24 h

## CCCCCCCCCC(=O)N[C@@H](Cc1c[nH]c2ccccc12)C(=O)N[C@H](CC(N)=O)C(=O)N[C@@H](CC(=O)O)C(=O)N[C@@H]1C(=O)NCC(=O)N[C@@H](CCCN)C(=O)N[C@@H](CC(=O)O)C(=O)N[C@H](C)C(=O)N[C@@H](CC(=O)O)C(=O)NCC(=O)N[C@H](CO)C(=O)N[C@@H]([C@H](C)CC(=O)O)C(=O)N[C@@H](CC(=O)c2ccccc2N)C(=O)O[C@@H]1C
Staphylococcus aureus [1]
  MBC: 24 µg/mL (≈ 14.8 µM)
Staphylococcus aureus [2]
  Activity: Active
[3]
  Cmax: 130 µg/mL
[4]
  Ratio: 40
[5]
  Cmax: 34 µg/mL
[6]
  Ratio: 34
[7]
  Ratio: 26
Staphylococcus aureus [8]
  log10cfu: 2.57
[9]
  AUC(0-inf): 795 µg·h/mL
[10]
  Cmax: 103 µg/mL
Staphylococcus aureus [11]
  log10cfu: 2.26
[12]
  AUC(0-inf): 1200 µg·h/mL
[13]
  Cmax: 140 µg/mL
Staphylococcus aureus [14]
  Activity: Active
[15]
  fT>MIC: 100%
[16]
  Cmax: 128 µg/mL
Staphylococcus aureus [17]
  MIC: 1 µg/mL
[18]
  RatioAUC/MIC: 795
[19]
  AUC at 24 h: 1010 µg·h/mL
[20]
  Cmax: 106 µg/mL
[21]
  RatioAUC/MIC: 1100
[22]
  RatioAUC/MIC: 953
[23]
  AUC(0-inf): 984 µg·h/mL
[24]
  AUC at 24 h: 730 µg·h/mL
[25]
  fT>MIC: 100%
[26]
  AUC(0-inf): 1100 µg·h/mL
[27]
  AUC at 24 h: 773 µg·h/mL
[28]
  AUC(0-inf): 953 µg·h/mL
Staphylococcus aureus [29]
  MIC: 1 µg/mL
[30]
  AUC(0-inf): 830 µg·h/mL
Staphylococcus aureus [31]
  MBC: 4 µg/mL (≈ 2.47 µM)
[32]
  fT>MIC: 100%
[33]
  Cmax: 26 µg/mL
Staphylococcus aureus [34]
  Activity: Active
[35]
  Cmax: 95 µg/mL
[36]
  Cmax: 40 µg/mL

## CC(=O)NC[C@H]1CN(c2ccc(N3CCOCC3)c(F)c2)C(=O)O1 [LINEZOLID]
Staphylococcus aureus [37]
  Activity: Active
Staphylococcus aureus [38]
  Activity: Active
Staphylococcus aureus [39]
  MBC: > 32 µg/mL
Staphylococcus aureus [40]
  Activity: Active
Staphylococcus aureus [41]
  log10cfu: 0.93
Staphylococcus aureus [42]
  log10cfu: 1.06
Staphylococcus aureus [43]
  MBC: > 32 µg/mL
